Assay results: publication PMC9078569, “Understanding the inhibitory mechanism of tea polyphenols against tyrosinase using fluorescence spectroscopy, cyclic voltammetry, oximetry, and molecular simulations” (RSC Advances, 2018)
Where two headings read alike, the source gives them in different places.

Tests used:
[1] = biological target: T1, Tyrosinase (TYR, EC1.14.18.1) from mushroom (Agaricus bisporus, UniProt C7FF04); test: Inhibition of diphenolase activity of tyrosinase with L-DOPA as substrate (spectroscopy at 475 nm; HPLC for catechin); assay type: biochemical
T1 construct: purchased Sigma-Aldrich
Protocol: The inhibitory activity of the TPs, i.e., catechin, ECG, and EGCG, and a positive control, i.e., KA, against diphenolase activity of tyrosinase was measured with L-DOPA as a substrate using the reported spectroscopy method.[13,24] Assays were conducted in a 96-well micro-plate and a spectrophotometer reader was used to determine the absorbance.[25] Briefly, 6 μL of 1000 unit per mL tyrosinase solution was combined with potassium phosphate buffer (pH 6.5) and 1 mM KA or TPs (both dissolved in potassium phosphate buffer, pH 6.5). After pre-incubating at 25 °C for 5 min, 150 μL of 1 mM L-DOPA aqueous solution was added, followed by incubation at 25 °C for 10 min, again, before the concentration determination of DOPA quinone at 475 nm absorbance. The total volume of each reaction system was 300 μL. […] The inhibitory activity was expressed by IC50 value, which is equal to the concentration of inhibitor at 50% inhibitory rate according to the following equation:[25]1 [drawing 1] where, A is the optical density (OD475) of potassium phosphate buffer; B, C and D are the OD475 of potassium phosphate buffer with tyrosinase, with both TPs and tyrosinase, and with TPs, respectively.

[2] = system: Tyrosinase (TYR, EC1.14.18.1) from mushroom; test: Fluorescence quenching of tyrosinase by TPs (Stern–Volmer analysis); assay type: binding; details: for bimolecular quenching constant (κq): calculated by KSV/τ0, τ0 10^−8 s; for Stern–Volmer quenching constant (KSV): excited at 274 nm, pH 6.5; for binding constant (KA): static quenching equation
Protocol: The fluorescence spectrum of the TP-TYR complex was measured according to our previous work.[27] Briefly, 10 mM TP was titrated into 3 mL potassium phosphate buffer (pH 6.5) containing 10 units tyrosinase under continuous stirring and nitrogen exists. After 5 minutes, tyrosinase was excited at 274 nm and the emission spectrum over the range of 280 nm to 400 nm was detected through a 3 nm slit. The emission spectrum of the tyrosinase solution was also directly measured as a background.
Fluorescence quenching mechanism is usually divided into static or dynamic manner.[46] To clarify the quenching mechanism of the interaction between tyrosinase and TPs, we analyzed the fluorescence quenching data using the Stern–Volmer equation.[47]2 [drawing 2] where F0 and F are the relative fluorescence intensities before and after the addition of inhibitor, respectively; κq is the bimolecular quenching rate constant; τ0 is the fluorescence lifetime at 10^−8 s for most biological macromolecules,[48] [Q] is the concentration of inhibitor and KSV is the Stern–Volmer quenching constant. The Stern–Volmer quenching constant (KSV) determined by linear regression of a curve of F0/F versus [Q] was plotted in Fig. 2 (inset). As listed in Table 1, the KSV value of ECG with less one hydroxyl group on ring B is much higher than that of EGCG. Good linear relationships in three Stern–Volmer plots of TPs are generally the indication of a single type of quenching manner. The calculated κq values by KSV/τ0 are 0.48 × 10^12, 4.10 × 10^12 and 3.13 × 10^12 M^−1 for catechin, ECG and EGCG, respectively. […] For static quenching mechanism, the binding site number (n) and association constant (KA) can be obtained by the following equation:[49]3 [drawing 3]

[3] = system: Tyrosinase (TYR, EC1.14.18.1) from mushroom; test: Oximetry: oxygen utilization in oxidation of TPs by tyrosinase and of L-DOPA by the remaining tyrosinase; assay type: biochemical; details: for inactivation rate (k2) of tyrosinase / oxidation rate (k1): fit of oxygen utilization curve, 30 °C, pH 6.5; for partition ratio (r): molecules of inhibitor required to inactivate one molecule of tyrosinase: intercept on abscissa, ESI Fig. 3
Protocol: The oxygen consumption in the process of tyrosinase interacting with TPs was monitored with the reported method.[28] Briefly, 0.4 mL of 8.2 mM TP was added to 19.2 mL phosphate buffer (pH 6.5). After equilibrating at 30 °C for 5 min, 0.4 mL of 500 unit per ml tyrosinase was injected to TP solution under continuous stirring. The decrease of oxygen was monitored with the dissolved oxygen meter. In order to evaluate the remaining activity of tyrosinase, L-DOPA was added to the above mixture of tyrosinase and TP after 5 minutes if no oxygen decreasing was observed, followed by monitoring the secondary oxygen utilization in the oxidation reaction of L-DOPA catalyzed by the remaining tyrosinase. The concentration of L-DOPA was 194 μM.
To further reveal tyrosinase inhibitory mechanisms of TPs, we monitored oxygen utilization against time starting from the injecting of TPs into tyrosinase solution using oximetry. The corresponding time-dependent curves of oxygen utilization are depicted in Fig. 4A. In the initial stage, the increase of oxygen utilization for TPs further corroborates that TPs could be oxidized by tyrosinase like-as substrate manner. The time-dependent curves of oxygen utilization can be better fitted with the following equation:[28]4 [drawing 4] where, Ut is the oxygen consumption at time t; E0 is the initial amount of tyrosinase; k1 and k2 are the oxidation rate and the inactivation rate of tyrosinase, respectively. As listed in Table 2, ECG and catechin can inactivate tyrosinase with inactivation rate (k2) of 0.018 and 0.016, respectively, while the inactivation rate of EGCG is ∼4 times lower than catechin. […] Furthermore, the catecholase activities of residual tyrosinase were evaluated by the oxygen utilization of L-DOPA. […] The slope (K) of oxygen consumption curve is positive proportional to the amount of residual tyrosinase.[64] Obviously, the remaining quantity of tyrosinase for EGCG is largest, while the residual amount is least for ECG. […] In this inactivation pathway, the catechol is converted to an intermediate by deprotonation and reductive elimination along with the leaving of forming Cu(0) from catalytic center, leading to the irreversible inactivation of tyrosinase.[28] However, the oxidation of ring B on EGCG or ring G on both ECG and EGCG (the pyrogallol group) catalyzed by tyrosinase should be competitive with the natural substrate (such as L-DOPA) through the diphenolase-like catalytic pathway (as shown in Fig. 5), because the three adjacent hydroxyl groups on the pyrogallol group having larger steric hindrance and worse orientation were unfavorable to the insert of additional oxygen on the aromatic ring.[28] Tyrosinase at last can be reactivated after catalyzing the oxidation of two molecules of EGCG, accounting for the lower inhibitory activity of EGCG than ECG and catechin. […] As shown in ESI Fig. 3 ^† (the intercept on abscissa), inactivating one molecule of tyrosinase requires 14.7 molecules of ECG or 38.7 molecules of catechin, being better consistent with their inactivation rate. The lower inactivation efficiency against tyrosinase explained that catechin has weaker inhibitory activity than ECG.

[4] = diphenolase activity, L-DOPA substrate, pH 6.5, 25 °C, read-out: IC50

T1 sequence (C7FF04 1-392): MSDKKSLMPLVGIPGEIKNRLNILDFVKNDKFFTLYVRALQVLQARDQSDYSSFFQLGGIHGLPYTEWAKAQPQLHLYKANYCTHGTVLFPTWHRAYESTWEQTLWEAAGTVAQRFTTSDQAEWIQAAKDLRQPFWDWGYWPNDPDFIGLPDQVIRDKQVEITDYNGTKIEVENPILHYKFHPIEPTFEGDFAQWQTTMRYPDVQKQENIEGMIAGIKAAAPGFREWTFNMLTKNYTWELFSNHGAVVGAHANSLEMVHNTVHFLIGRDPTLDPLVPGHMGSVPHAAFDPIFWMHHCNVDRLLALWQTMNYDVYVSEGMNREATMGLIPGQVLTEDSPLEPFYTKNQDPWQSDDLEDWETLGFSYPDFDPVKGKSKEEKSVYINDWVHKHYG

| IC50 [1, 4] | association constant (KA) [2] | bimolecular quenching constant (κq) [2] | Stern–Volmer quenching constant (KSV) [2] | binding constant (KA) [2] | inactivation rate (k2) of tyrosinase [3] | oxidation rate (k1) [3] | inactivation rate, times lower than catechin [3] | slope (K) of the residual tyrosinase oxidizing L-DOPA substrate ([3]; oxygen utilization, 194 μM L-DOPA added after TP) | Compound | partition ratio (r): molecules of inhibitor required to inactivate one molecule of tyrosinase [3] | IC50 [1] | tyrosinase inhibitory activity, fold stronger than that of EGCG ([1]; by IC50 values) |
| --- | --- | --- | --- | --- | --- | --- | --- | --- | --- | --- | --- | --- |
| 57.1 µM | 0.04 × 10^5 | 4.8e+11 M⁻¹ s⁻¹ | 4800 M⁻¹ | 0.04 ×10^5 | 0.016 | 0.063 |  |  | Oc1cc(O)c2c(c1)OC(c1ccc(O)c(O)c1)C(O)C2 (single isomer, unassigned; (+)) [Catechin, (+)-catechin] | 38.7 molecules |  |  |
| 142 µM | 3.07 × 10^5 | 3.13e+12 M⁻¹ s⁻¹ | 31300 M⁻¹ | 3.07 ×10^5 | 0.004 | 0.007 | ~4 times | 0.39 | O=C(OC1Cc2c(O)cc(O)cc2OC1c1cc(O)c(O)c(O)c1)c1cc(O)c(O)c(O)c1 (single isomer, unassigned; (-)) [EGCG, (−)-epigallocatechin-3-O-gallate] |  |  |  |

| Compound | IC50 [1, 4] | association constant (KA) [2] | bimolecular quenching constant (κq) [2] | Stern–Volmer quenching constant (KSV) [2] | binding constant (KA) [2] | inactivation rate (k2) of tyrosinase [3] | oxidation rate (k1) [3] | inactivation rate, times lower than catechin [3] | slope (K) of the residual tyrosinase oxidizing L-DOPA substrate ([3]; oxygen utilization, 194 μM L-DOPA added after TP) | partition ratio (r): molecules of inhibitor required to inactivate one molecule of tyrosinase [3] | IC50 [1] | tyrosinase inhibitory activity, fold stronger than that of EGCG ([1]; by IC50 values) |
| --- | --- | --- | --- | --- | --- | --- | --- | --- | --- | --- | --- | --- |
| O=C(OC1Cc2c(O)cc(O)cc2OC1c1ccc(O)c(O)c1)c1cc(O)c(O)c(O)c1 (single isomer, unassigned; (-)) [ECG, (−)-epicatechin gallate] |  | 0.53 × 10^5 | 4.1e+12 M⁻¹ s⁻¹ | 41000 M⁻¹ | 0.53 ×10^5 | 0.018 | 0.068 |  |  | 14.7 molecules | 22.6 µM | 6 fold |
